Measurements reported in patent US7166744B2, “Retinoid derivatives and methods for producing said compounds and anti-cancer pharmaceutical composition comprising said compounds” (Chebigen Co., Ltd., priority 2001, dated 2007).

Legend:
Format in all cases: cell-based
HeLa cervix cancer cells = assay: MTT proliferation assay, HeLa; conditions: 48 hours, uterine cancer
Protocol: (§1) The effects of test compounds on proliferation of various cancer cells was examined by 3-(4,5-dimethylthiazol-2-yl)-2,5-diphenyltetrazolium bromide (MTT, Sigma) assay in a dose dependent manner. In the MTT assay, colon, liver, cervix, ovary, and breast cancer cell lines were treated with test compounds at various concentrations. Living cancer cells reduce MTT to dark blue MTT formazan that would be measured by absorbance.
(§2) Colon cancer cells, HCT116, DLD-1 and HT29, cervix cancer cells, HeLa and CaSki, ovary cancer cells, SKOV-3, 2774 and OVCAR-3, liver cancer cells, SK-Hep-1, PLCPRF5 and HepG2, and breast cancer cells, ZR75-1 and MDA-MB 231 were seeded at an initial density of 3000 cells per well in 96-well plates. After attachment of cells to the walls of the wells, the medium containing fresh retinoid was treated with various concentrations (0.5 μM, 1 μM, 2.5 μM, 5 μM, 10 μM) for 48 hours. 50 μl of MTT solution (2 mg/ml in PBS) was added to cell culture media. The reaction micture was incubated at 37° C. in a 5% CO2 atmosphere for 4 hours. The supernatant was removed and 150 μl of DMSO was added. The optical density was measured spectrophotometrically at 550 nm. […] For other retinoid derivatives according to the present invention, absorbances were measured by this procedure and IC50 values, concentrations required for 50% growth inhibition, were determined.

HepG2 liver cancer cells = assay: MTT proliferation assay, HepG2
Protocol: as §1, §2

[1] = tested on: ZR75-1 breast cancer cells; assay: MTT proliferation assay, ZR75-1
Protocol: as §1, §2

RARγ = target: T1, RARγ (Homo sapiens, UniProt P13631); assay: CAT reporter assay, RARγ; conditions: 1 μM, control = 1.0; for expression level of CAT enzyme, RARγ −: column '−'
T1 construct: expressed in transfected cells
T1 sequence (P13631 1-454): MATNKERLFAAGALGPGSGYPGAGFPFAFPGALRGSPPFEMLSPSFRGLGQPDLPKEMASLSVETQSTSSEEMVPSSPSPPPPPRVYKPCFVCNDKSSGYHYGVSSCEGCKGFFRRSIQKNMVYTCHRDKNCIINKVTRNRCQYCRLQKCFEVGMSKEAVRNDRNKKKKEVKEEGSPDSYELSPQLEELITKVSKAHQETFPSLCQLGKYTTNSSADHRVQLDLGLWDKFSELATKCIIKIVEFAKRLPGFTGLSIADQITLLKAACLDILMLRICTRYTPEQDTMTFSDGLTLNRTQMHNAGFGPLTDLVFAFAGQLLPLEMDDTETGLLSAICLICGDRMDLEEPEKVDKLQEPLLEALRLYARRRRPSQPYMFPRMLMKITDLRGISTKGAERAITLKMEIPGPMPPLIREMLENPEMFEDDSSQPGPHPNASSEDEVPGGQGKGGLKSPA
Text: In order to confirm the effect of KCBG60 according to the present invention on retinoid receptor activity, cells were cotransfected with expression vectors of receptor subfamilies and reporter genes. As the reporter gene, chloramphenicol acetyltransferase (CAT) with a transcription control site reactive to respective receptors was used.

RXRα = target: T2, RXRα (Homo sapiens, UniProt P19793); assay: CAT reporter assay, RXRα; conditions: 1 μM, control = 1.0, RA = 9-cis RA; for expression level of CAT enzyme, RXRα −: column '−'
T2 construct: expressed in transfected cells
T2 sequence (P19793 1-462): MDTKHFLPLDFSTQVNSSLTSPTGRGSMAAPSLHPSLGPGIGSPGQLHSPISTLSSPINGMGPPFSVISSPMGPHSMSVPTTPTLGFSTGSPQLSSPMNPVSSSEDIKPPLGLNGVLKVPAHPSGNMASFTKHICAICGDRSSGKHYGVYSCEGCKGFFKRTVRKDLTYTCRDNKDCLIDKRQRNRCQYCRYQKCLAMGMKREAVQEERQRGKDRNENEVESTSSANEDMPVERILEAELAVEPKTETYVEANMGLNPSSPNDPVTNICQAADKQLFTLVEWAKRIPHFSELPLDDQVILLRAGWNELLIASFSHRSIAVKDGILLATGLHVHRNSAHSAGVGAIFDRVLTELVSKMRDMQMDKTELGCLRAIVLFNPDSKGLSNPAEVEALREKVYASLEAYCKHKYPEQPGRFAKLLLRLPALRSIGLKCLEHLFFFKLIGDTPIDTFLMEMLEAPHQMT
Text: (§3) As the reporter gene, chloramphenicol acetyltransferase (CAT) with a transcription control site reactive to respective receptors was used.

RXRβ = target: T3, RXRβ (Homo sapiens, UniProt P28702); assay: CAT reporter assay, RXRβ; conditions: 1 μM, control = 1.0, RA = 9-cis RA; for expression level of CAT enzyme, RXRβ −: column '−'
T3 construct: expressed in transfected cells
T3 sequence (P28702 1-533): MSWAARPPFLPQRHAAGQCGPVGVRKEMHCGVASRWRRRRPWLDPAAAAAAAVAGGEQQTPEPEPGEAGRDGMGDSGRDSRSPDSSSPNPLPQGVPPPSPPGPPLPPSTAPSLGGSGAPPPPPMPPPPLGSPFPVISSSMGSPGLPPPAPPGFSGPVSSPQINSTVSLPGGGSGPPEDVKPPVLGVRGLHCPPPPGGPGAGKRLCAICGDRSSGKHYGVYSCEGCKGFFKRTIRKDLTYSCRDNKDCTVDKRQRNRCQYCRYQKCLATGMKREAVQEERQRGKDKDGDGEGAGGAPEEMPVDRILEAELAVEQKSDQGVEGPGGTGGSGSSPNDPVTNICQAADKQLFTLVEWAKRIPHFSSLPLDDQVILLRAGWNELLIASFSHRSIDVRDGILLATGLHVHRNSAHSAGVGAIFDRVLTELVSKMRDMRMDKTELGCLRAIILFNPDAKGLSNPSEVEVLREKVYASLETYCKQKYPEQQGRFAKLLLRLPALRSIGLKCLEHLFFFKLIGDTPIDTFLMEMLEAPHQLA
Text: as §3

RXRγ = target: T4, RXRγ (Homo sapiens, UniProt P48443); assay: CAT reporter assay, RXRγ; conditions: 1 μM, control = 1.0, RA = 9-cis RA; for expression level of CAT enzyme, RXRγ −: column '−'
T4 construct: expressed in transfected cells
T4 sequence (P48443 1-463): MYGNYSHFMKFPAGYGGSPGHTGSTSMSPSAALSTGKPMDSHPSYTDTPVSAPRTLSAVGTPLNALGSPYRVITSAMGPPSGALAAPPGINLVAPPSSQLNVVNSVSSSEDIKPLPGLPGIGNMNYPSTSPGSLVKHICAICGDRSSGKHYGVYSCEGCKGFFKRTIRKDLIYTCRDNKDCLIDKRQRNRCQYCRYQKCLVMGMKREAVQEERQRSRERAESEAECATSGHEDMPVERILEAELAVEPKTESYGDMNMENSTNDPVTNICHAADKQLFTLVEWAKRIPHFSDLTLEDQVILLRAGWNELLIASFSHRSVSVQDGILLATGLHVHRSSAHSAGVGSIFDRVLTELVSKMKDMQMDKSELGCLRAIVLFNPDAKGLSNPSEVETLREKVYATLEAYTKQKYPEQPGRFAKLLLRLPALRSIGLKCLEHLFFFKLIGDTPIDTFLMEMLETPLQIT
Text: as §3

| Compound | IC50 (HeLa cervix cancer cells) [µM] | IC50 (HepG2 liver cancer cells; 48 hours) [µM] | IC50 ([1]; 48 hours) [µM] | expression level of CAT enzyme, RARγ + (RARγ) | expression level of CAT enzyme, RARγ − (RARγ) | expression level of CAT enzyme, RXRα + (RXRα) | expression level of CAT enzyme, RXRα − (RXRα) | expression level of CAT enzyme, RXRβ + (RXRβ) | expression level of CAT enzyme, RXRβ − (RXRβ) | expression level of CAT enzyme, RXRγ + (RXRγ) | expression level of CAT enzyme, RXRγ − (RXRγ) | IC50 (HeLa cervix cancer cells; Homo sapiens, HeLa) [µM] | IC50 (HepG2 liver cancer cells; Homo sapiens, HepG2, 48 hours) [µM] | IC50 ([1]; Homo sapiens, ZR-75-1, 48 hours) [µM] |
| --- | --- | --- | --- | --- | --- | --- | --- | --- | --- | --- | --- | --- | --- | --- |
| CCCC(=O)Oc1cc(O)ccc1NC(=O)/C=C(C)/C=C/C=C(C)/C=C/C1=C(C)CCCC1(C)C [KCBG10, 2.2-[(2E,4E,6E,8E)-3,7-Dimethyl-9-(2,6,6-trimethylcyclohex-1-enyl)-nona-2,4,6,8-tetraenoylamino]-5-hydroxyphenylbutanoate] | 0.5 | > 100 | 2 | – | – | – | – | – | – | – | – | – | – | – |
| CCCC(=O)Nc1cc(NC(=O)/C=C(C)/C=C/C=C(C)/C=C/C2=C(C)CCCC2(C)C)ccc1O [KCBG41, (2E,4E,6E,8E)-[3,7-dimethyl-9-(2,6,6-trimethylcyclohex-1-enyl)-nona-2,4,6,8-tetraenoylamino]-(3-butyrylamino-4-hydroxy)phenylamide] | 3 | > 100 | 4.1 | – | – | – | – | – | – | – | – | – | – | – |
| phenyl butylate | – | – | – | 1.1 | 0.8 | 1.2 | 1.1 | 1.1 | 0.5 | 1.2 | 1.1 | – | – | – |
| CC1=C(/C=C/C(C)=C/C=C/C(C)=C/C(=O)Nc2ccc(O)cc2)C(C)(C)CCC1 [HPR, (2E,4E,6E,8E)-[3,7-dimethyl-9-(2,6,6-trimethylcyclohex-1-enyl)-nona-2,4,6,8-tetraenoylamino]-4-hydroxyphenylamide] | 3 | > 100 | 15 | 24.8 | 4.5 | 1.5 | 1.0 | 1.4 | 0.6 | 1.5 | 1.3 | – | – | – |
| CCCC(=O)Oc1ccc(NC(=O)/C=C(C)/C=C/C=C(C)/C=C/C2=C(C)CCCC2(C)C)cc1 [KCBG60] | – | – | – | 1.9 | 0.6 | 1.3 | 0.9 | 1.1 | 0.5 | 1.4 | 1.2 | – | – | – |
| CC1=C(/C=C/C(C)=C/C=C/C(C)=C/C(=O)O)C(C)(C)CCC1 [ATRA, All-trans-retinoic acid, reference compound] | – | – | – | 49.3 | 14.1 | – | – | – | – | – | – | 5 | > 500 | > 500 |
